The structures appear in SMILES notation.

One assay addresses T1, human GPR55 (Homo sapiens, UniProt Q9Y2T6).
T1 construct: expressed in transfected cells; host or cells: HEK293 (human embryonic kidney) cells
The assay is described as follows: Ca2+ mobilization assay (FLIPR, Calcium5 dye), human GPR55. The class given is cell-based. The note with it: HEK293 cells co-expressing PK-tagged human GPR55 and EA-tagged beta-arrestin; intracellular calcium increase. Here is the method: (§1) This cell-based assay measures the ability of compounds to activate the GPR55 receptor by measuring changes in intracellular calcium levels. HEK293 (human embryonic kidney) cells co-expressing recombinant ProLink (PK) tagged human or rat GPR55 and Enzyme Acceptor (EA) tagged beta-arrestin were seeded into PDL-coated, black-walled clear-bottom 384 well plates in assay buffer (25 mM HEPES, HBSS, 1 mM Probenicid, 0.1% BSA, pH 7.4) containing Calcium5 dye (Molecular Devices). Cells were incubated in suspension with the Calcium5 dye for 1 hour at 37° C., 5% CO2. Dilution series of the compounds in assay buffer were added to the cells in duplicate wells and compound-mediated real-time increases in intracellular calcium concentration were recorded as increased fluorescence using the Molecular Devices FLIPR instrument. Kinetic traces were reduced to a numerical value by subtracting the minimum response from the maximum response.
Background: A change in cytosolic calcium serves as a functional read-out for many receptors and channels.

A further assay addresses T2, rat GPR55 (Rattus norvegicus, UniProt F1MAK4).
T2 construct: expressed in transfected cells; host or cells: HEK293 (human embryonic kidney) cells
T2 sequence (F1MAK4 1-319): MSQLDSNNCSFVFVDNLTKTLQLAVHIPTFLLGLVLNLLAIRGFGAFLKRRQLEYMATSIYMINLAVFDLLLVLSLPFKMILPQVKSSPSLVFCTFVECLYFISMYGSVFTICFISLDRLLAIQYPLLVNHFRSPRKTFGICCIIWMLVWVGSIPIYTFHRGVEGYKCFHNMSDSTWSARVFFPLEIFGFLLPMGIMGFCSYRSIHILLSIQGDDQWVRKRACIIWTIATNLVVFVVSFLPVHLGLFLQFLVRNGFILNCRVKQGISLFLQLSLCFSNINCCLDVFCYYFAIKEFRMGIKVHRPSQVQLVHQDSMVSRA
The assay is described as follows: Ca2+ mobilization assay (FLIPR, Calcium5 dye), rat GPR55. In kind it is cell-based. Conditions: HEK293 cells co-expressing PK-tagged rat GPR55 and EA-tagged beta-arrestin; intracellular calcium increase. Here is the method: as §1

T1 sequence (Q9Y2T6 whole entry): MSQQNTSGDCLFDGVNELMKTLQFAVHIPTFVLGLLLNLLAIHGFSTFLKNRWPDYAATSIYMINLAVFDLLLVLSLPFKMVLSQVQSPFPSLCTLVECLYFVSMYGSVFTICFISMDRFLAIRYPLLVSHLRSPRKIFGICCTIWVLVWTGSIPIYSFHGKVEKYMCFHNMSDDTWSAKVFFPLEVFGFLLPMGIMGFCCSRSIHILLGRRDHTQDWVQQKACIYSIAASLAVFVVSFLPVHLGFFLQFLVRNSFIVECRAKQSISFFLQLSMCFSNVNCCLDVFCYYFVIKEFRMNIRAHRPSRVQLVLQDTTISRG

What is called EC50 is the concentration that produces a half-maximal response. Regarding `OC(c1cncc(-c2cnc(N[C@@H]3CCc4ccccc43)cn2)c1)C(F)F` (stereo partly drawn) [Example 45, 1-(5-(5-(((R)-2,3-dihydro-1H-inden-1-yl)amino)pyrazin-2-yl)pyridin-3-yl)-2,2-difluoroethan-1-ol], the EC50 on human GPR55 was at most 200 nM; at rat GPR55, at most 1000 nM.
In the case of `C[C@@H](Nc1ncc(-c2ccc3oc(=O)n(C)c3c2)nn1)c1ccc(F)cc1F` [Example 75, (R)-5-(3-((1-(2,4-difluorophenyl)ethyl)amino)-1,2,4-triazin-6-yl)-3-methylbenzo[d]oxazol-2(3H)-one], the EC50 at human GPR55 and on rat GPR55 was at most 1000 nM throughout.
Turning to `C[C@@H](Nc1cnc(-c2cncc(OC(F)F)c2)cn1)c1ccc(F)cc1` [Example 39, (R)-5-(5-(difluoromethoxy)pyridin-3-yl)-N-(1-(4-fluorophenyl)ethyl)pyrazin-2-amine], the EC50 on human GPR55 and on rat GPR55 was at most 1000 nM each time.
Consider `C[C@@H](Nc1cnc(-c2cnnc(C(O)C(F)(F)F)c2)cn1)c1ccc(F)cc1` (stereo partly drawn) [Example 58, 2,2,2-trifluoro-1-(5-(5-(((R)-1-(4-fluorophenyl)ethyl)amino)pyrazin-2-yl)pyridazin-3-yl)ethan-1-ol], for which the 50% effective concentration (EC50) on human GPR55 was at most 50 nM; at rat GPR55, at most 5000 nM.
As for `C[C@@H](Nc1ncc(-c2ccc3ocnc3c2)nn1)c1ccc(F)cc1` [Example 80, (R)-6-(benzo[d]oxazol-5-yl)-N-(1-(4-fluorophenyl)ethyl)-1,2,4-triazin-3-amine], the concentration for a half-maximal effect (EC50) on human GPR55 is at most 200 nM; on rat GPR55, at most 1000 nM.
With `Cc1cc(C(C)Nc2ncc(-c3ccc4oc(=O)n(C)c4c3)nn2)ccc1F` (single isomer, unassigned) [Example 77a, 5-(3-((1-(4-fluoro-3-methylphenyl)ethyl)amino)-1,2,4-triazin-6-yl)-3-methylbenzo[d]oxazol-2(3H)-one], the half-maximal effective concentration (EC50) at human GPR55 and at rat GPR55 was at most 1000 nM in each case.
On to `C[C@@H](Nc1cnc(-c2cnnc(CC(F)(F)F)c2)cn1)c1ccc(F)cc1` [Example 57, (R)-N-(1-(4-fluorophenyl)ethyl)-5-(6-(2,2,2-trifluoroethyl)pyridazin-4-yl)pyrazin-2-amine], for which the EC50 at human GPR55 was at most 50 nM; at rat GPR55, at most 5000 nM.
For `CC[S+]([O-])c1cncc(-c2ccc(N[C@H](C)c3ccc(F)cc3)nc2)c1` (stereo partly drawn) [Example 13, 5′-(ethylsulfinyl)-N-((R)-1-(4-fluorophenyl)ethyl)-[3,3′-bipyridin]-6-amine], the figures for the EC50 at human GPR55 and at rat GPR55 were at most 200 nM and at most 5000 nM, respectively.
On to `C[C@@H](Nc1ncc(-c2ccc3oc(=O)n(C)c3c2)cn1)c1ccc(F)cc1` [Example 63, (R)-5-(2-((1-(4-fluorophenyl)ethyl)amino)pyrimidin-5-yl)-3-methylbenzo[d]oxazol-2(3H)-one], for which the EC50 on human GPR55 and on rat GPR55 was at most 1000 nM in each case.
On to `C[C@@H](Nc1ccc(-c2cncc(Cl)c2)cn1)c1ccc(F)cc1` [Example 9, (R)-5′-chloro-N-(1-(4-fluorophenyl)ethyl)-[3,3′-bipyridin]-6-amine], for which the results for the EC50 on human GPR55 and at rat GPR55 were at most 200 nM and at most 50 nM, respectively.
In the case of `C[C@@H](Nc1cnc(-c2cncc(OCC(F)(F)F)c2)cn1)c1ccc(F)cc1` [Example 42, (R)-N-(1-(4-fluorophenyl)ethyl)-5-(5-(2,2,2-trifluoroethoxy)pyridin-3-yl)pyrazin-2-amine], the 50% effective concentration (EC50) at human GPR55 was at most 200 nM; on rat GPR55, at most 1000 nM.
`C[C@@H](Nc1cnc(-c2ccc3oc(=O)n(C)c3c2)cn1)c1ccc(F)cc1` [Example 62, (R)-5-(5-((1-(4-fluorophenyl)ethyl)amino)pyrazin-2-yl)-3-methylbenzo[d]oxazol-2(3H)-one]: the EC50 on human GPR55 and at rat GPR55 was at most 1000 nM in each case.
Take `C[C@@H](Nc1ncc(-c2cncc(C=C(F)F)c2)nn1)c1ccc(F)cc1` [Example 40, (R)-6-(5-(2,2-difluorovinyl)pyridin-3-yl)-N-(1-(4-fluorophenyl)ethyl)-1,2,4-triazin-3-amine]: the EC50 on human GPR55 is at most 200 nM; on rat GPR55, at most 5000 nM.
In the case of `C[C@@H](Nc1cnc(-c2cncc(C(O)C(F)(F)F)c2)cn1)c1ccc(F)cc1` (single isomer, unassigned) [Example 32a], the concentration for a half-maximal effect (EC50) at human GPR55 and on rat GPR55 was at most 50 nM each time.
As to `C[C@@H](Nc1ncc(-c2ccc3oc(=O)n(CCO)c3c2)nn1)c1ccc(F)cc1` [Example 65, (R)-5-(3-((1-(4-fluorophenyl)ethyl)amino)-1,2,4-triazin-6-yl)-3-(2-hydroxyethyl)benzo[d]oxazol-2(3H)-one], the EC50 was at most 1000 nM on human GPR55 and at most 5000 nM at rat GPR55.
On the same counts, the results for `C[C@@H](Nc1cnc(-c2cncc(C(O)C(F)(F)F)c2)cn1)c1ccc(F)cc1` (mixture of isomers) [Example 32, 2,2,2-trifluoro-1-(5-(5-(((R)-1-(4-fluorophenyl)ethyl)amino)pyrazin-2-yl)pyridin-3-yl)ethan-1-ol] are at most 200 nM and at most 50 nM.
Take `C[C@@H](Nc1cnc(-c2cncc(C(O)C(F)F)c2)cn1)c1ccc(F)cc1` (single isomer, unassigned) [Example 54a]: the EC50 is at most 1000 nM at human GPR55 and at most 200 nM on rat GPR55.
As for `CCc1cncc(-c2ccc(N[C@H](C)c3ccc(C)cc3)nc2)c1` [Example 50, (R)-5′-ethyl-N-(1-(p-tolyl)ethyl)-[3,3′-bipyridin]-6-amine], the values for the 50% effective concentration (EC50) on human GPR55 and at rat GPR55 were at most 1000 nM and at most 5000 nM, respectively.
The matching figures for `CS(=O)(=O)c1cncc(-c2cnc(N[C@@H]3CCc4ccccc43)cn2)c1` [Example 36, (R)-N-(2,3-dihydro-1H-inden-1-yl)-5-(5-(methylsulfonyl)pyridin-3-yl)pyrazin-2-amine]: at most 200 nM and at most 5000 nM.
On the same counts, the results for `C[C@@H](Nc1cnc(-c2cncc(CCF)c2)cn1)c1ccc(F)cc1` [Example 52, (R)-5-(5-(2-fluoroethyl)pyridin-3-yl)-N-(1-(4-fluorophenyl)ethyl)pyrazin-2-amine] are at most 50 nM and at most 200 nM.
Take `C[C@@H](Nc1ncc(-c2ccc3oc(=O)n(C)c3c2)nn1)c1ccc(Cl)cc1` [Example 73, (R)-5-(3-((1-(4-chlorophenyl)ethyl)amino)-1,2,4-triazin-6-yl)-3-methylbenzo[d]oxazol-2(3H)-one]: the EC50 on human GPR55 was at most 1000 nM; on rat GPR55 it was at most 5000 nM.
On the same counts, the results for `C[C@@H](Nc1ccc(-c2cncc(S(C)(=O)=O)c2)cn1)c1ccc(F)cc1` [Example 7, (R)-N-(1-(4-fluorophenyl)ethyl)-5′-(methylsulfonyl)-[3,3′-bipyridin]-6-amine] are at most 200 nM and at most 200 nM.
With `Cc1cnc(C)c(-c2ccc(N[C@H](C)c3ccc(F)cc3)nc2)c1` [Example 10, (R)-N-(1-(4-fluorophenyl)ethyl)-2′,5′-dimethyl-[3,3′-bipyridin]-6-amine], the EC50 at human GPR55 and at rat GPR55 was at most 1000 nM each time.
As to `CCc1cncc(-c2ccc(N[C@@H]3CCc4ccccc43)nc2)c1` [Example 21, (R)-N-(2,3-dihydro-1H-inden-1-yl)-5′-ethyl-[3,3′-bipyridin]-6-amine], the EC50 at human GPR55 was at most 200 nM; on rat GPR55 it was at most 5000 nM.
As to `C[C@@H](Nc1ncc(-c2ccc3oc(=O)n(CS(C)(=O)=O)c3c2)nn1)c1ccc(F)cc1` [Example 72, (R)-5-(3-((1-(4-fluorophenyl)ethyl)amino)-1,2,4-triazin-6-yl)-3-((methylsulfonyl)methyl)benzo[d]oxazol-2(3H)-one], the EC50 at human GPR55 was at most 1000 nM; at rat GPR55, at most 5000 nM.
In the case of `CCc1cncc(-c2ccc(N[C@H](C)c3ccccc3)nc2)c1` [Example 49, (R)-5′-ethyl-N-(1-phenylethyl)-[3,3′-bipyridin]-6-amine], the EC50 at human GPR55 is at most 50 nM; at rat GPR55, at most 1000 nM.
On the same counts, the results for `C[C@@H](Nc1cnc(-c2cncc([S+](C)[O-])c2)cn1)c1ccc(F)cc1` (stereo partly drawn) [Example 23, N-((R)-1-(4-fluorophenyl)ethyl)-5-(5-(methylsulfinyl)pyridin-3-yl)pyrazin-2-amine] are at most 1000 nM and at most 5000 nM.
On the same counts, the results for `COCn1c(=O)oc2ccc(-c3cnc(N[C@H](C)c4ccc(F)cc4)nn3)cc21` [Example 66, (R)-5-(3-((1-(4-fluorophenyl)ethyl)amino)-1,2,4-triazin-6-yl)-3-(methoxymethyl)benzo[d]oxazol-2(3H)-one] are at most 200 nM and at most 1000 nM.
On the same counts, the results for `C[C@@H](Nc1ncc(-c2ccc3oc(=O)n(C(F)F)c3c2)nn1)c1ccc(F)cc1` [Example 68, (R)-3-(difluoromethyl)-5-(3-((1-(4-fluorophenyl)ethyl)amino)-1,2,4-triazin-6-yl)benzo[d]oxazol-2(3H)-one] are at most 200 nM and at most 1000 nM.
Take `CS(=O)(=O)c1cncc(-c2ccc(NC3CCc4cc(F)ccc43)nc2)c1` (stereo not drawn) [Example 38, N-(5-fluoro-2,3-dihydro-1H-inden-1-yl)-5′-(methylsulfonyl)-[3,3′-bipyridin]-6-amine]: the EC50 on human GPR55 was at most 1000 nM; on rat GPR55, at most 50 nM.

The values are drawn from patent US20250282728A1, “NITROGEN COMPRISING HETEROCYCLIC DERIVATIVES FOR THE TREATMENT OF DISORDERS ASSOCIATED WITH GPR55 RECEPTOR” (Cerevance, Inc., priority 2022, published 2025).
